Molecular target: T1, C1r-CCP2-SP (Homo sapiens, UniProt P00736)
T1 sequence (P00736 374-463 limits assumed): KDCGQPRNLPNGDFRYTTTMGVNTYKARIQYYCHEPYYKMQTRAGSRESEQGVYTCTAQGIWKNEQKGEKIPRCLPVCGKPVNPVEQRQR
T1 sequence (P00736 464-705 limits assumed): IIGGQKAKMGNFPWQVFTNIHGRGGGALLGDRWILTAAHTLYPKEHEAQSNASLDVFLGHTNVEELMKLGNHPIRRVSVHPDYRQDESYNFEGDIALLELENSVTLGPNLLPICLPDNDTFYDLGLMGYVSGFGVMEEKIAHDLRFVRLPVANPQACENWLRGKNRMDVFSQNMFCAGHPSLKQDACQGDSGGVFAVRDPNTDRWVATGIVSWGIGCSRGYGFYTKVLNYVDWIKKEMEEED
Test: SPR domain mapping, C1r-CCP2-SP surface
Format: binding
Settings: duplicate
Text: Figure 5 Selectivity and mechanistic analysis of CMP-1611 and CMP-1696. (A) Chemical structure of CMP-1611. (B) Chemical structure of CMP-1696. (C) Dose-dependent inhibition by CMP-1611 and CMP-1696 in a classical pathway-specific ELISA. Data were fit with GraphPad Prism using non-linear regression with a log(inhibitor) vs. response model. […] The CMP-778 inhibitory response could not be fit to a dose-response inhibition model. (D) Complement pathway selectivity of CMP-1611 and CMP-1696. Compounds were assessed for their ability to inhibit activation of complement via the lectin and alternative pathways using single doses of 500 μM compound in triplicate. To ensure only lectin pathway activation, 2% (v/v) C1q-depleted serum (CompTech) was used and mannan was used as the activator. To match serum sources and amounts for this assay, the classical pathway assays were repeated here using serum from CompTech at 2% (v/v) final concentration. Alternative pathway activation assays were performed using 20% (v/v) serum (CompTech), alternative pathway buffers, and C3b detection (see Methods and Materials for details). […] (E) C1r, C1r-CUB1, and C1r-CCP2-SP, were immobilized on an SPR sensor chip and binding responses for 500 μM CMP-1611 and CMP-1696 or 10 μM Futhan were each injected in duplicate over all surfaces. Binding responses were corrected for the molecular weight of each analyte and the immobilization level and molecular weight of each surface ligand. Measures of statistical significance in (D) were obtained by comparison of vehicle control using an unpaired t-test (* p < 0.05). To assess selectivity of CMP-1611 and CMP-1696, we performed pathway-specific ELISA-based inhibition assays. […] However, CMP-1696, but not CMP-1611, blocked lectin pathway activation at a similar level as it did the classical pathway (Figure 5D). To further investigate the divergent selectivity profiles of CMP-1611 and CMP-1696, we first sought to clarify the binding site on C1r for each compound. […] We then injected each compound simultaneously over the three surfaces at 500 μM and measured binding responses. […]

| relative SPR binding response, C1r-CCP2-SP (10 µM Futhan) | relative SPR binding response, C1r-CCP2-SP (500 µM compound) | SMILES |
| --- | --- | --- |
| bound C1r and C1r-CCP2-SP similarly | – | N=C(N)c1ccc2cc(OC(=O)c3ccc(N=C(N)N)cc3)ccc2c1 [Futhan, reference compound] |
| – | bound weakly | CN(C)c1cc(N2CCCC(N)C2)ncn1 (stereo not drawn) [CMP-1611] |
| – | high binding | COCc1nc(-c2ccc(OC3CNC3)cc2)no1 [CMP-1696] |
